Test results published in patent publication US9193954B2, “Methods and compositions for mesenchymal stem cell proliferation” (priority 2011, dated 2015).

Tests used:
Type in all cases: cell-based, human
[1] = system: markers of undifferentiated stem cells, Sox2, Nanog, and Oct4; experiment: RT-PCR of Sox2, Nanog, Oct4 in PEG-encapsulated BIO-treated hMSCs; conditions: for Nanog gene expression relative to untreated controls / Oct4 gene expression relative to untreated controls / Sox2 gene expression relative to untreated controls: 5 μM BIO
Procedure: (§1) RT-PCR was used to assess gene expression of hMSCs over time. At days: 0 (before BIO treatment), 1, 3, 6, 19, 29, 34, 37, and 41, samples were lysed and total RNA was isolated (ENZA Total RNA Kit, Omega). Reverse transcription was performed using the iScript cDNA Synthesis Kit (Bio-Rad). The reverse transcription reaction was incubated at 25° C. for 5 min, 42° C. for 30 min, and terminated at 85° C. for 5 min. PCR was performed using a CFX96 Real-Time PCR System (Bio-Rad), monitoring sybrgreen products (SsoFastEvaGreen Master Mix, Bio-Rad). Primers for β-actin, sex determining region Y-box 2 (Sox2), Nanog homobox (Nanog), and octamer-binding transcription factor 4 (Oct4), core-binding factor subunit alpha-1 (Cbfa1, also known as Runx2), sex determining region Y-box 9 (Sox9), and peroxisome proliferator-activated receptor gamma (PPARγ) were used (Table 2). The PCR parameters used were as follows: hold at 95° C. for 5 min, followed by 40 cycles of: 95° C. for 15 sec denaturation, 60° C. (β-actin, Sox2, Sox9), or 57° C. (Nanog, Oct4, Cbfa1), or 55° C. (PPARγ) for 60 sec annealing, and 72° C. for 20 sec extension. Threshold cycle (CT) analysis was used to quantify PCR products normalized to the cellular housekeeping gene β-actin. Relative gene quantification was performed using the Pfaffl Method, taking into account the variation between primer efficiencies.
(§2) A 10 wt % solution of PEGDM was prepared in phosphate buffered saline (PBS) with 2.0 mM acryloyl-PEG-RGDS. The photoinitiator lithium phenyl-2,4,6-trimethylbenzoylphosphinate (LAP) was synthesized using conventional techniques and added at a final concentration of 0.05 wt %. Trypsinized hMSCs were centrifuged to form pellets and counted. The PEG macromer solution was added to the cell pellet, and volumes were adjusted to achieve a final cell concentration of 25 million cells/mL. Using a sterile 1 mL syringe with the tip removed as a mold, 40 μL of PEG/cell solution was added and exposed to long-wavelength 365 nm light (5 mW/cm^2 intensity) for 10 min at room temperature. After photopolymerization was complete, the cell/hydrogel disks were removed from the syringes and placed in 24-well tissue culture plates (Greiner Bio-One, Monroe, N.C.) with growth media. The constructs were cultured up to 3 weeks at 37° C. and 5% CO2 with media changes occurring every three days.
Encapsulated hMSC viability, BIO treatment, and assessment of gene expression was performed as described in Section 2.3 with exception of cell lysate collection. For assessment of gene expression hMSC-PEG constructs were homogenized in lysis buffer and centrifuged to pellet polymerized PEG. The supernatant was then collected for analysis.

[2] = system: hMSCs; experiment: alamarBlue metabolic assay of hMSC proliferation after BIO dosing (Example 1); conditions: for effect on hMSC population (alamarBlue): 24 hr dosing
Procedure: FIG. 1. Proliferative effect of BIO after 24 hr dosing; 0 μM (-□-, grey squares), 2 μM (-∘-, open circles), 5 μM (-▴-, black triangles), 10 μM (-X-, black crosses). Proliferation was assessed using alamarBlue metabolic assay. Error bars shown are standard error (n=3).
The small molecule GSK3β inhibitor 6-bromoindirubin-3′-oxime was synthesized as previously described (Polychronopoulos et al., J Med Chem. 2004; 47(4):935-46). It is also commercially available (such as from Sigma). The molecule was solubilized in dimethyl sulfoxide (DMSO) to specified concentrations. hMSCs were plated at a density of 5,000 cell/cm2 in 24-well tissue culture plates. Cells were allowed to become adherent for a period of 24 hrs before BIO was introduced. 10 μL of BIO in DMSO were added to 1 mL of culture media so that the final concentrations of 2, 5, and 10 μM were achieved. […] Culture continued over 33 days with media being replaced every three days. An alamarBlue cell viability assay was performed on days: −1 (before BIO treatment), 0, 4, 8, 12, 14, 17, 23, 26, 28, and 33. Cell population was normalized to alamarBlue readings after the initial period of 24 hr BIO dosing.

[3] = system: PEG-encapsulated hMSCs; experiment: PEG-encapsulated hMSC proliferation by total cellular DNA concentration (PicoGreen)
Procedure: FIG. 7 Schematic representation of 18 day PEG-encapsulated hMSC culture after 24 hr exposure to BIO-containing media (A). Cell DNA concentration was quantified on days 0, 1, 5, 12, and 18 and shown to undergo a dose-dependent, BIO-mediated increase in proliferation (B), as previously shown in two-dimensional cultures. Representative LIVE/DEAD confocal images of PEG-encapsulated BIO-treated hMSC cultures (C).
as §2, with “After photopolymerization was complete, the cell/hydrogel disks were removed from the syringes and placed in 24-well tissue culture plates (Greiner Bio-One, Monroe, N.C.) with growth media. The constructs were cultured up to 3 weeks at 37° C. and 5% CO2 with media changes occurring every three days.” left out
Encapsulated hMSC proliferation was assessed using total cellular DNA concentration, assuming constant DNA per cell, using a Quant-iT PicoGreen dsDNA Assay Kit (Invitrogen). […]

[4] = system: markers of undifferentiated stem cells, Sox2, Nanog, and Oct4; experiment: RT-PCR of Sox2, Nanog, Oct4 in two-dimensionally cultured BIO-treated hMSCs, normalized to β-actin
Procedure: as §1
To more closely examine BIO's effects on hMSCs gene expression profiles for the markers of undifferentiated stem cells sex determining region Y-box 2 (Sox2), Nanog homobox (Nanog), and octamer-binding transcription factor 4 (Oct4) were monitored and normalized to the housekeeping gene β-actin. […] RNA was collected just before, and 1, 3, 6, 19, 27, 34, 37, and 41 days after the BIO treatment Results were quantified over time and again, normalized to both the housekeeping gene β-actin and untreated controls (0 μM BIO), and the results are shown in FIG. 5.

O=C1Nc2cc(Br)ccc2/C1=C1/Nc2ccccc2/C1=N\O [BIO, 6-bromoindirubin-3′-oxime]
time at which Sox2, Nanog, and Oct4 expression returned to basal levels ([1]; PEG hydrogel-encapsulated hMSCs): ~18 days
Nanog gene expression relative to untreated controls ([1]; day 1, PEG-encapsulated): 2.4 fold
Oct4 gene expression relative to untreated controls ([1]; day 1, PEG-encapsulated): 3.5 fold
Sox2 gene expression relative to untreated controls ([1]; day 1, PEG-encapsulated): 2.2 fold
Nanog gene expression relative to untreated controls ([1]; day 12, PEG-encapsulated): 2.7 fold
Oct4 gene expression relative to untreated controls ([1]; day 12, PEG-encapsulated): 4.3 fold
Sox2 gene expression relative to untreated controls ([1]; day 12, PEG-encapsulated): 4.1 fold
effect on hMSC population (alamarBlue) ([2]; BIO 2-5 μM): dose dependent proliferative response
effect on hMSC population (alamarBlue) ([2]; BIO concentrations below 2 μM): did not have a noticeable effect
effect of continual dosing on hMSCs ([2]; continual dosing with BIO, parallel study (data not shown)): complete cell death by day 5
3D proliferation relative to untreated control ([3]; 5 uM BIO): 120%
increase in proliferation (normalized DNA concentration) versus 0 μM ([3]; 5 μM BIO, at both days 12 and 18, PEG hydrogels): 20%
Nanog gene expression compared to untreated control ([4]; 2 μM BIO, day 1, 2D): 5.4 fold
Oct4 gene expression compared to untreated control ([4]; 2 μM BIO, day 1, 2D): 5.1 fold
Sox2 gene expression compared to untreated control ([4]; 2 μM BIO, day 1, 2D): 7.1 fold
Nanog gene expression compared to untreated control ([4]; 2 μM BIO, day 3, 2D): 1.0 fold
Oct4 gene expression compared to untreated control ([4]; 2 μM BIO, day 3, 2D): 3.4 fold
Sox2 gene expression compared to untreated control ([4]; 2 μM BIO, day 3, 2D): 4.4 fold
Nanog gene expression compared to untreated control ([4]; 5 μM BIO, day 1, 2D): 15.3 fold
Oct4 gene expression compared to untreated control ([4]; 5 μM BIO, day 1, 2D): 16.9 fold
Sox2 gene expression compared to untreated control ([4]; 5 μM BIO, day 1, 2D): 96.4 fold
Nanog gene expression compared to untreated control ([4]; 5 μM BIO, day 3, 2D): 4.8 fold
Oct4 gene expression compared to untreated control ([4]; 5 μM BIO, day 3, 2D): 9.8 fold
Sox2 gene expression compared to untreated control ([4]; 5 μM BIO, day 3, 2D): 17.7 fold
increase of Nanog expression relative to untreated controls ([4]; day 1, 2 uM BIO): 797%
increase of Oct4 expression relative to untreated controls ([4]; day 1, 2 uM BIO): 545%
increase of Sox2 expression relative to untreated controls ([4]; day 1, 2 uM BIO): 677%
increase of Nanog expression relative to untreated controls ([4]; day 1, 5 uM BIO): 2247%
increase of Oct4 expression relative to untreated controls ([4]; day 1, 5 uM BIO): 1800%
increase of Sox2 expression relative to untreated controls ([4]; day 1, 5 uM BIO): 9180%
increase of Nanog expression relative to untreated controls ([4]; day 3, 2 uM BIO): 71%
increase of Oct4 expression relative to untreated controls ([4]; day 3, 2 uM BIO): 263%
increase of Sox2 expression relative to untreated controls ([4]; day 3, 2 uM BIO): 312%
increase of Nanog expression relative to untreated controls ([4]; day 3, 5 uM BIO): 324%
increase of Oct4 expression relative to untreated controls ([4]; day 3, 5 uM BIO): 755%
increase of Sox2 expression relative to untreated controls ([4]; day 3, 5 uM BIO): 1238%
